One experiment deals with μ receptors (Homo sapiens, UniProt P35372). Kind of experiment: Opiate receptor radioligand binding, competition with diprenorphine, naltrexone control. As to conditions: compared to naltrexone control; test concentration not given. The source says:
Opiate Receptor Binding of (S)-7,8-saturated-4,5α-epoxy-morphinaniums. Radioligand binding assays may be conducted to determine the binding specificity of an (S)-7,8-saturated-4,5-epoxy-morphinanium for μ-, κ-, and δ-opiate receptors using methods adapted from scientific literature (Simonin, F et al 1994, Mol. Pharmacol. 46:1015-1021; Maguire, P. et al 1992, Eur. J. Pharmacol. 213:219-225; Simonin, F. et al PNAS USA 92(15):1431-1437; Wang, J B 1994, FEBS Lett 338:217-222). For example, a membrane may be associated with human opioid receptor material. Diprenorphine which has an affinity for all […] opioid receptors, can be used as a competitive challenge to the test compound. Membranes can then be separated, and the binding of the test compounds to the receptor material can be determined by scintillation counting. A control, such as naltrexone, can be used to determine relative binding affinity.

In experiment [1] the target is T1, μ-opioid receptors in the guinea pig ileum (Cavia porcellus, UniProt A0ACM8Q262). The experiment can be described thus: Field-stimulated guinea pig ileum, evaluation of agonist activity. As to conditions: for activation at 1 µM: 1.0E-06 M; for activation at 0.1 µM: 1.0E-07 M; for activation at 0.01 µM: 1.0E-08 M; for activation at 100 µM: 1.0E-04 M; for activation at 10 µM: 1.0E-05 M; for activation at 30 µM: 3.0E-05 M; for activation at 3 µM: 3.0E-06 M; for activation at 0.3 µM: 3.0E-07 M; for activation at 0.03 µM: 3.0E-08 M; for Response to compound + Naloxone, percent of the control response to DAMGO: compound 1.0E-04 M + Naloxone 1.0E-07 M. How it is done:
(§1) In Vitro Pharmacology of (S)-7,8-saturated-4,5α-epoxy-morphinaniums on μ receptor. Mμ-receptor agonist/antagonist activity may be adjudged by use of field-stimulated guinea pig ileum by methods known in the art. For example, segments of guinea pig terminal ileum may be suspended in 20-ml organ baths filled with an oxygenated (95% O2 and 5% CO2) and pre-warmed (37° C.) physiological salt solution of the following composition (in mM): NaCl 118.0, KCl 4.7, MgSO4 1.2, CaCl2 2.5, KH2PO4 1.2, NaHCO3 25.0 and glucose 11.0 (pH 7.4). Additional experimental conditions that may be followed are described in Hutchinson et al. (1975) Brit. J. Pharmacol., 55:541-546.
(§2) Indomethacin (1 μM), nor-binaltorphimine (0.01 μM), methysergide (1 μM), ondansetron (10 μM) and GR113808 (0.1 μM) may be also present throughout an experiment to prevent prostanoid release and to block the k-opioid, 5-HT2, 5-HT3 and 5-HT4 receptors, respectively. The tissues in such tests are typically connected to force transducers for isometric tension recordings. The tissue may be stretched to a resting tension, for example, of 1 g then allowed to equilibrate, for example, about 60 min during which time they may be washed repeatedly and the tension readjusted. Electrical stimulation with pulses of minimal intensity to trigger maximal contractions and a short duration, for example, 1 ms duration, delivered by a constant current stimulator at a frequency such a 0.1 Hz.
Exemplar Test for Agonist Activity. The tissues may be exposed to a submaximal concentration of the reference agonist DAMGO (0.1 μM) to verify responsiveness and to obtain a control response. Following extensive washings and recovery of the control twitch contractions, the tissues may be exposed to increasing concentrations of the (S)-7,8-saturated-4,5-epoxy-morphinanium or the same agonist. The different concentrations may be added cumulatively and each left in contact with the tissues until a stable response is obtained or for a maximum of 15 min.

In experiment [2] the target is T1, μ-opioid receptors in the guinea pig ileum. The experiment can be described thus: Field-stimulated guinea pig ileum, evaluation of antagonist activity against DAMGO. As to conditions: for remaining activity at 100 µM / remaining activity at 10 µM / remaining activity at 1 µM / remaining activity at 0.1 µM / remaining activity at 0.01 µM / remaining activity at 30 µM / remaining activity at 3 µM / remaining activity at 0.3 µM / remaining activity at 0.03 µM: guinea pig, mean, n=2, read-out: Response to DAMGO (1.0E-07 M) in the presence of the compound, percent of the control response to DAMGO; for remaining activity at 100 µM: compound 1.0E-04 M; for remaining activity at 10 µM: compound 1.0E-05 M; for remaining activity at 1 µM: compound 1.0E-06 M; for remaining activity at 0.1 µM: compound 1.0E-07 M; for remaining activity at 0.01 µM: compound 1.0E-08 M; for remaining activity at 30 µM: compound 3.0E-05 M; for remaining activity at 3 µM: compound 3.0E-06 M; for remaining activity at 0.3 µM: compound 3.0E-07 M; for remaining activity at 0.03 µM: compound 3.0E-08 M; for Antagonist activity IC50 value: inhibition of the response to DAMGO, guinea pig ileum. The method, then: as §1, §2
Exemplary Test for Antagonist Activity. The tissues may be exposed to a submaximal concentration of the reference agonist DAMGO (0.1 μM) to obtain a control response. […] Each concentration may be left in contact with the tissues until a stable response is obtained or for a maximum time, such as 15 min. The maximum change in the amplitude of the electrically-evoked twitch contractions induced by each compound concentration may be measured. […] The EC50 value (concentration producing a half-maximum response) or IC50 value (concentration causing a half-maximum inhibition of the response to DAMGO) may be determined by linear regression analysis of the concentration-response curves. Inhibition of the DAMGO-induced response by the (S)-7,8-saturated-4,5-epoxy-morphinanium may indicate an antagonist activity at the μ receptors.

[3] abbreviates: mean, n=2, read-out: Response to compound (decrease in twitch contraction amplitude), percent of the control response to DAMGO.

This is an account of results in US20080207669A1, “(S)-N-Stereoisomers of 7,8-Saturated-4,5-Epoxy-Morphinanium Analogs” (Progenics Pharmaceuticals, Inc., priority 2006, published 2008).

Sequence of μ receptors (P35372 whole entry): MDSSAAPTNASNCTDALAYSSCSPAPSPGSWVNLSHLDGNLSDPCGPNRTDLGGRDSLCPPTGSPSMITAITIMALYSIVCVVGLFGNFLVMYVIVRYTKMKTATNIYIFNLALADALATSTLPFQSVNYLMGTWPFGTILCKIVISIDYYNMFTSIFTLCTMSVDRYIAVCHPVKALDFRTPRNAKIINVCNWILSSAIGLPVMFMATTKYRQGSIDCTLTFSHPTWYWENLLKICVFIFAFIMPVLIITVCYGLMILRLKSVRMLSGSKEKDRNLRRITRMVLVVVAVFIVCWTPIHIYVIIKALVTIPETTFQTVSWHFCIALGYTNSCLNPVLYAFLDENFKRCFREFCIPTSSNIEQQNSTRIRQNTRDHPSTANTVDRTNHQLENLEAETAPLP
T1 sequence (A0ACM8Q262 1-400): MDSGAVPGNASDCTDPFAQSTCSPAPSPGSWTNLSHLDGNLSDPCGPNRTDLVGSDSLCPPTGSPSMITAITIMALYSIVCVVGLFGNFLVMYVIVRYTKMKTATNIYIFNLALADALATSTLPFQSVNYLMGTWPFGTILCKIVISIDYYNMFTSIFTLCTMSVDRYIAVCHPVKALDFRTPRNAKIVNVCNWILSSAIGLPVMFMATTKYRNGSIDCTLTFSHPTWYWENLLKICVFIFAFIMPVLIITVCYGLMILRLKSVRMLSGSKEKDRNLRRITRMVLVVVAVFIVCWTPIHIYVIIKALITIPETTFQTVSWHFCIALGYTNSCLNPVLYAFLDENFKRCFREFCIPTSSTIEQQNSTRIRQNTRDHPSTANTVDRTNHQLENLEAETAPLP

Consider `CC(C)=CC[N+]1(C)CC[C@]23c4c5ccc(O)c4O[C@H]2C(=O)CC[C@@]3(O)[C@H]1C5.[I-]` (stereo partly drawn) [(S)-17-(3,3-dimethylallyl)-4,5α-epoxy-3,14-di-hydroxy-17-methyl-6-oxomorphinanium iodide], for which the “inhibition of control specific binding at the μ receptor” value (from here on “inhibition of control specific binding”) at μ receptors stood at 65%.

Regarding `C[C@@H](NC(=O)[C@@H](N)Cc1ccc(O)cc1)C(=O)NCC(=O)N(C)[C@@H](Cc1ccccc1)C(=O)NCCO` [DAMGO, reference compound], in experiment [1] (setting [3]), the activation at 1 µM stood at 103%, the activation at 0.1 µM was found to be 96% and the activation at 0.01 µM came out at 57%. The activation at 0.001 µM in experiment [1] (1.0E-09 M, mean, n=2, read-out: Response to compound (decrease in twitch contraction amplitude), percent of the control response to DAMGO) was 9%. The “Response to DAMGO + Naloxone, percent of the control response to DAMGO” value in experiment [1] (highest DAMGO concentration + Naloxone 1.0E-07 M, mean, n=2) is 4%.

As to `CC(C)=CC[N+]1(C)CC[C@]23c4c5ccc(O)c4O[C@H]2C(=O)CC[C@@]3(O)[C@H]1C5.[I-]` (stereo partly drawn) [(S)-DMAM, (S)-17-(3,3-dimethylallyl)-4,5α-epoxy-3,14-di-hydroxy-17-methyl-6-oxomorphinanium iodide], in experiment [1] (setting [3]), the activation at 100 µM amounted to 101%, the activation at 10 µM was found to be 93%, the activation at 0.1 µM was 8% and the activation at 0.01 µM was determined as 0%. Further, in experiment [1] (setting [3]), the activation at 30 µM is 99%, the activation at 3 µM came out at 77%, the activation at 0.3 µM was 19% and the activation at 0.03 µM was 0%. Moreover, the “Response to compound + Naloxone, percent of the control response to DAMGO” value in experiment [1] (mean, n=2) was found to be 77%. The EC50 – broadly, the concentration that produces a half-maximal response – in experiment [1] (read-out: Agonist activity EC50 value, concentration producing a half-maximum response, guinea pig ileum) was 1300 nM. Moreover, in experiment [2], the remaining activity at 100 µM was 113%, the remaining activity at 10 µM amounted to 110%, the remaining activity at 1 µM came to 101% and the remaining activity at 0.1 µM was 100%. In experiment [2], the remaining activity at 0.01 µM stood at 100%, the remaining activity at 30 µM worked out at 113%, the remaining activity at 3 µM stood at 105% and the remaining activity at 0.3 µM was found to be 100%. In addition, in experiment [2], the remaining activity at 0.03 µM came to 100% and the “Antagonist activity IC50 value” is recorded as “No antagonist activity”.

`C[N+]1(CC#Cc2ccccc2)CC[C@]23c4c5ccc(O)c4O[C@H]2C(=O)CC[C@@]3(O)[C@H]1C5` (stereo partly drawn) [(S)-PM]: in experiment [1] (setting [3]), the activation at 100 µM was 89%, the activation at 10 µM was found to be 53%, the activation at 1 µM was 25% and the activation at 0.1 µM was found to be 6%. In experiment [1] (setting [3]), the activation at 0.01 µM was 0%, the activation at 30 µM is 71%, the activation at 3 µM amounted to 38% and the activation at 0.3 µM was 12%. Moreover, in experiment [1] (setting [3]), the activation at 0.03 µM is 0%. Further, the “Response to compound + Naloxone, percent of the control response to DAMGO” value in experiment [1] (mean, n=2) was 30%. The “inhibition of control specific binding” value at μ receptors amounted to 80%. Further, in experiment [2], the remaining activity at 100 µM came to 110%, the remaining activity at 10 µM is 100%, the remaining activity at 1 µM is 100% and the remaining activity at 0.1 µM came to 100%. Besides, in experiment [2], the remaining activity at 0.01 µM was determined as 100%, the remaining activity at 30 µM turned out to be 100%, the remaining activity at 3 µM was 100% and the remaining activity at 0.3 µM worked out at 100%. Also, in experiment [2], the remaining activity at 0.03 µM worked out at 100% and the “Antagonist activity IC50 value” is listed as “No antagonist activity”.

In the case of `C=CC[N+]1(CC2CC2)CC[C@]23c4c5ccc(O)c4O[C@H]2C(=O)CC[C@@]3(O)[C@H]1C5` (stereo partly drawn) [(S)-17-Allyl-17-cyclopropylmethyl-4,5α-epoxy-3,14-di-hydroxy-6-oxomorphinanium Iodide], the “inhibition of control specific binding” value on μ receptors is 68%.
